Source: ChEMBL document CHEMBL1124633, “Antimalarials. 16. Synthesis of 2-substituted analogues of 8-[(4-amino-1-methylbutyl)amino]-6-methoxy-4-methyl-5-[3- (trifluoromethyl)phenoxy]quinoline as candidate antimalarials” (J Med Chem, 1989)

How the values were obtained:
[1] = Acute toxicity administered intra peritoneally was determined in 85 female rats; details: rat, in vivo, ip
[2] = Molar primaquine index is ratio of ED50 of Compound by ED50 of primaquine in rhesus monkey; format: functional
[3] = Acute toxicity administered orally was determined in 85 female rats; details: rat, in vivo, po
[4] = Acute toxicity administered orally was determined in 74 male rats; details: rat, in vivo, po
[5] = Acute toxicity administered intra peritoneally was determined in 74 male rats; details: rat, in vivo, ip
[6] = Molar primaquine index is ratio of ED50 of Primaquine by ED50 of primaquine in rhesus monkey; format: functional
[7] = Acute toxicity administered orally was determined in female rats; format: organism-based; details: rat, in vivo, po
[8] = Acute toxicity administered orally was determined in male rats; format: organism-based; details: rat, in vivo, po
[9] = Acute toxicity administered intraperitoneally was determined in male rats; format: organism-based; details: rat, in vivo, ip
[10] = Acute toxicity administered intraperitoneally was determined in female rats; format: organism-based; details: rat, in vivo, ip

## COc1cc(NC(C)CCCN)c2nccc(C)c2c1Oc1cccc(C(F)(F)F)c1 (configuration not stated)
[1]
  LD50: 54 mg/kg
[2]
  Ratio: 6.8
[3]
  LD50: 401 mg/kg
[4]
  LD50: 256 mg/kg
[5]
  LD50: 86 mg/kg

## COc1cc(NC(C)CCCN)c2nc(OC)cc(C)c2c1 (configuration not stated)
[2]
  Ratio: 6.8

## COc1cc(NC(C)CCCN)c2ncccc2c1 (configuration not stated) [PRIMAQUINE]
[6]
  Ratio: 1

## COc1cc(C)c2c(Oc3cccc(C(F)(F)F)c3)c(OC)cc(NC(C)CCCN)c2n1 (configuration not stated) [TAFENOQUINE]
[7]
  LD50: 416 mg/kg
[2]
  Ratio: 12.8
[8]
  LD50: 429 mg/kg
[9]
  LD50: 102 mg/kg
[10]
  LD50: 71 mg/kg
